The text below walks through data of patent publication US20040248913A1, “(Pyridinyl and pyrimidyl) trienoic acid derivatives as retinoid x receptor modulators” (priority 2001, published 2004).

Molecules are shown by their SMILES.

One data set concerns db/db mice. Briefly: db/db mice, daily oral gavage. Format: in vivo, mouse. Particulars: 7 week old db/db mice. From the text:
(§1) Rodents that are genetically defective in the leptin pathway are commonly used as animal models of non-insulin dependant diabetes mellitus (NIDDM). db/db mice and ZDF rats develop frank diabetes that progresses to include β-cell failure and the accompanying precipitous drop in plasma insulin levels. […] All three rodent models were used to examine the efficacy of oral dosing with compounds of the invention on diabetes, insulin sensitivity, food consumption and body weight gain.
(§2) Mice (obtained from Jackson Laboratory), ZDF rats (obtained from Genetic Models Inc.) and fa/fa rats (obtained from either Charles River, or Harlan) are maintained on 12-hour light/dark cycle. Mice (age 28-42 days) are caged in groups of 5-6. Rats (age 7 weeks) are housed individually. All animals are allowed ad libitum access to water and food (Purina 5015 for mice and 5008 for rats). Compounds are administered at the specified doses by oral gavage on the morning of each day of any experiment. Blood samples are obtained 3 hours after dosing from fed animals under anesthesia and collected into heparinized capillary tubes from the tail vein.

The subject of another data set is RXRα:RAR heterodimer. Briefly: RXR:RAR heterodimer cotransfection assay in CV-1 cells. Type of data set: cell-based, human. As to conditions: alone. An excerpt: In the co-transfection assay, cloned cDNA for one or more IRs (e.g., human RARα, RXRα, or PPARγ), alone or in combination (i.e. for heterodimer assays) under the control of a constitutive promoter (e.g., the SV 40, RSV or CMV promoter) is introduced by transfection (a procedure to introduce exogenous genes into cells) into a background cell substantially devoid of endogenous IRs. These introduced gene(s) direct the recipient cells to make the IR protein(s) of interest. A further gene is also introduced (co-transfected) into the same cells in conjunction with the IR gene(s). This further gene, comprising the cDNA for a reporter protein, such as firefly luciferase (LUC), controlled by an appropriate hormone responsive promoter containing a hormone response element (HRE). This reporter plasmid functions as a reporter for the transcriptional-modulating activity of the target IR(s). Thus, the reporter acts as a surrogate for the products (mRNA then protein) normally expressed by a gene under control of the target receptor(s) and their native hormone(s).
Compounds of the present invention were also tested for the ability to synergize with an RAR or PPARγ agonist in the context of an RXR heterodimer. […] Efficacy of the compounds of the present invention in the agonist and synergy assays was calculated as the maximum response obtained over the range of the dose response curve relative to the maximum response obtained by the reference agonist. Antagonist efficacy was determined as a function (%) of maximal inhibition.
RAR suppresses RXR ligand binding and transactivation of typical RXR agonists via allosteric interactions. […] However, when RAR is occupied, typical RXR agonists activate the heterodimer. […] To examine the effects of the compounds of the present invention on the transcriptional properties of the RXR:RAR heterodimer, a heterodimer cotransfection assay as described above was employed.

Another data set relates to rodent models of NIDDM. Briefly: Rodent models of NIDDM / Type II Diabetes. Type of data set: in vivo.
Description: as §1, §2
On the other hand, full antagonists have no effect on glucose, triglycerides or the thyroid status in these same model systems. We have identified a specific subset of rexinoids that maintain the desirable insulin sensitizing activity and eliminate both the suppression of the thyroid axis and triglyceride elevations. These compounds are heterodimer selective modulators of RXR activity. They bind to RXR with high affinity (generally Ki<50 nM) and produce potent synergistic activation of the RXR:PPARγ heterodimer. This synergistic activation of PPARγ in vitro is presumably a major determinant of the antidiabetic efficacy of compounds in vivo.

The subject of data set [1] is mice transgenic for the human apolipoprotein A-I gene. The experiment in a line: Transgenic mice carrying the human apo A-I gene. Format: in vivo, mouse. An excerpt: Mice transgenic for the human apolipoprotein A-I gene (obtained from Jackson Laboratory) are used to evaluate PPARγ mediated effects on high density lipoprotein (HDL) cholesterol. The mice are handled as described above for db/db mice, except that they are fed Purina 5001.

For the compound `CN(C)C(=N)N=C(N)N` [metformin], the Plasma glucose entry in the data set with db/db mice (300 mg/kg by daily oral gavage) is reported as “lowers plasma glucose”. In addition, the “Efficacy on plasma glucose over time” value in the data set with db/db mice (300 mg/kg daily, 3 weeks subsequent to first week) was “efficacy of metformin decreases”.
Regarding `CC1=C(/C=C/C(C)=C/C=C/C(C)=C/C(=O)O)C(C)(C)CCC1` [ATRA, all-trans retinoic acid, reference compound], the “RXR:RAR agonist activity / transactivation alone (in words)” value in the data set with RXRα:RAR heterodimer is recorded as “strongly transactivate”.
Still for that read-out and setting: then `C/C(=C\c1ccc(C(=O)O)cc1)c1ccc2c(c1)C(C)(C)CCC2(C)C` [TTNPB, (E)-4-[2-(5,6,7,8-tetrahydro-5,5,8,8-tetramethyl-2-naphthalenyl)-1-propenyl]benzoic acid, reference compound], with “strongly transactivate”.
On to `Cc1cc2c(cc1C1(c3ccc(C(=O)O)cn3)CC1)C(C)(C)CCC2(C)C` [LG100268], for which, in the data set with rodent models of NIDDM, the Blood glucose levels result is given as “lower blood glucose levels”, the Insulin sensitizing activity result is “efficacious insulin sensitizers”, the Thyroid hormone axis result was “suppress the thyroid hormone axis” and the Triglycerides result is “raise triglycerides”. Moreover, the Triglycerides result in data set [1] is recorded as “raises triglycerides”.
